Data reported in patent US7915282B2, “C2-phenyl-substituted cyclic keto-enols used as pesticides and herbicides” (Bayer Aktiengesellschaft, priority 2000, dated 2011).

Assays:
Assay type in all cases: in vivo
[1] = test system: greenhouse red spider mite (Tetranychus urticae); assay: Tetranychus test (OP-resistant/dip treatment); settings: active compound concentration of 1000 ppm; after 7 days; infested bean plants dipped
Description: [table] To produce a suitable preparation of active compound, 1 part by weight of active compound is mixed with the stated amounts of solvent and emulsifier, and the concentrate is diluted with emulsifier-containing water to the desired concentration. Bean plants (Phaseolus vulgaris) which are heavily infested by all stages of the greenhouse red spider mite (Tetranychus urticae) are dipped into a preparation of active compound of the desired concentration. After the desired period of time, the effect in % is determined. 100% means that all spider mites have been killed; 0% means that none of the spider mites have been killed.

[2] = test system: Sugar beet; assay: Post-emergence test; settings: after three weeks
Description: (§1) [table] To produce a suitable preparation of active compound, 1 part by weight of active compound is mixed with the stated amount of solvent, the stated amount of emulsifier is added and the concentrate is diluted with water to the desired concentration. Test plants of a height of 5-15 cm are sprayed with the preparation of active compound such that the particular amounts of active compound desired are applied per unit area. The concentration of the spray liquor is chosen such that the particular amount of active compound desired is applied in 1000 l of water/ha. After three weeks, the degree of damage to the plants is rated in % damage in comparison to the development of the untreated control. The figures denote: [table]

[3] = test system: Cotton; assay: Post-emergence test; settings: after three weeks
Description: as §1

[4] = test system: Digitaria; assay: Post-emergence test; settings: after three weeks
Description: as §1

[5] = test system: Alopecurus; assay: Post-emergence test; settings: 15 g ai/ha, after three weeks
Description: as §1

[6] = test system: Setaria; assay: Post-emergence test; settings: after three weeks
Description: as §1

[7] = test system: Avena fatua; assay: Post-emergence test; settings: 15 g ai/ha, after three weeks
Description: as §1

[8] = test system: green rice leaf hopper (Nephotettix cincticeps); assay: Nephotettix test; settings: active compound concentration of 1000 ppm; after 6 days; rice seedlings dipped
Description: [table] To produce a suitable preparation of active compound, 1 part by weight of active compound is mixed with the stated amounts of solvent and emulsifier, and the concentrate is diluted with emulsifier-containing, water to the desired concentration. Rice seedlings (Oryza sativa) are treated by being dipped into the preparation of active compound of the desired concentrated and are populated with the green rice leaf hopper (Nephotettix cincticeps) while the leaves are still moist. After the desired period of time, the kill in % is determined. 100% means that all leaf hoppers have been killed; 0% means that none of the leaf hoppers have been killed.

[9] = test system: Sugar beet; assay: Pre-emergence test; settings: after three weeks
Description: (§2) [table] To produce a suitable preparation of active compound, 1 part by weight of active compound is mixed with the stated amount of solvent, the stated amount emulsifier is added and the concentrate is diluted with water to the desired concentration. Seeds of the test plants are sown in normal soil. After about 24 hours, the soil is sprayed with the preparation of active compound such that the particular amounts of active compound desired are applied per unit area. The concentration of the spray liquor is chosen such that the particular amounts of active compound desired are applied in 1000 l of water/ha. After three weeks, the degree of damage to the plants is rated in % damage in comparison to the development of the untreated controls. The figures denote: [table]

[10] = test system: Soya bean; assay: Pre-emergence test; settings: after three weeks
Description: as §2

[11] = test system: Digitaria; assay: Pre-emergence test; settings: 125 g ai/ha, after three weeks
Description: as §2

[12] = test system: Alopecurus; assay: Pre-emergence test; settings: after three weeks
Description: as §2

[13] = test system: Lolium; assay: Pre-emergence test; settings: after three weeks
Description: as §2

[14] = test system: Veronica; assay: Pre-emergence test; settings: 125 g ai/ha, after three weeks
Description: as §2

[15] = test system: Setaria; assay: Pre-emergence test; settings: after three weeks
Description: as §2

[16] = test system: larvae of the mustard beetle (Phaedon cochleariae); assay: Phaedon larvae test; settings: active compound concentration of 1000 ppm; after 7 days; cabbage leaves dipped
Description: (§3) [table] To produce a suitable preparation of active compound, 1 part by weight of active compound is mixed with the stated amounts of solvent and emulsifier, and the concentrate is diluted with emulsifier-containing water to the desired concentration. Cabbage leaves (Brassica oleracea) are treated by being dipped into the preparation of active compound of the desired concentration and are populated with larvae of the mustard beetle (Phaedon cochleariae) while the leaves are still moist. After the desired period of time, the kill in % is determined. 100% means that all beetle larvae have been killed; 0% means that none of the beetle larvae have been killed.

[17] = test system: peach aphids (Myzus persicae); assay: Myzus test; settings: active compound concentration of 1000 ppm; after 6 days; infested cabbage leaves dipped
Description: as §3, with “oleracea) which are heavily infested by the peach aphids (Myzus persicae)” for “oleracea)”, “concentration.” for “concentration and are populated with larvae of the mustard beetle (Phaedon cochleariae) while the leaves are still moist.”, “aphids” for “beetle larvae”

[18] = test system: Sorghum; assay: Post-emergence test; settings: after three weeks
Description: as §1

[19] = test system: Echinochloa; assay: Post-emergence test; settings: after three weeks
Description: as §1

[20] = test system: caterpillars of the owlet moth (Plutella xylostella); assay: Plutella test; settings: active compound concentration of 1000 ppm; after 7 days; cabbage leaves dipped
Description: as §3, with “caterpillars” for “larvae”, “owlet moth (Plutella xylostella)” for “mustard beetle (Phaedon cochleariae)”, “caterpillars” for “beetle larvae”

[21] = test system: Wheat; assay: Pre-emergence test; settings: 60 g ai/ha, after three weeks
Description: as §2

[22] = test system: Maize; assay: Pre-emergence test; settings: 60 g ai/ha, after three weeks
Description: as §2

[23] = test system: Bromus; assay: Pre-emergence test; settings: 60 g ai/ha, after three weeks
Description: as §2

[24] = test system: Avena fatua; assay: Pre-emergence test; settings: 60 g ai/ha, after three weeks
Description: as §2

[25] = test system: Wheat; assay: Post-emergence test; settings: 125 g ai/ha, after three weeks
Description: as §1

C=Cc1cc(C)c(C2=C(OC(=O)C(C)(C)C)C3(CCCCC3)OC2=O)c(C)c1 [Example I-2-b-2]
kill in % [1]: 100%

CCc1cc(CC)c(C2=C(OC(=O)C(C)CC)C3(CCC(OC)CC3)OC2=O)c(CC)c1 (stereo not drawn) [Example I-2-b-11]
kill in % [1]: 100%

CCc1cc(C)cc(C)c1C1=C(O)C2(CCC(C)CC2)NC1=O (stereo not drawn) [Example I-1-a-9]
% damage Sugar beet ([2]; 15 g ai/ha): 10% | % damage Cotton ([3]; 15 g ai/ha): 0% | % damage Digitaria ([4]; 15 g ai/ha): 95% | % damage Alopecurus [5]: 100% | % damage Setaria ([6]; 15 g ai/ha): 100% | % damage Avena fatua [7]: 95% | kill in % [8]: 100% | % damage Sugar beet ([9]; 125 g ai/ha): 0% | % damage Soya bean ([10]; 125 g ai/ha): 0% | % damage Digitaria [11]: 100% | % damage Alopecurus ([12]; 125 g ai/ha): 100% | % damage Lolium ([13]; 125 g ai/ha): 100% | % damage Veronica [14]: 90% | % damage Setaria ([15]; 125 g ai/ha): 100%

C=Cc1cc(C)c(C2=C(OC(=O)C(C)(C)C)C3(CCC(C)CC3)OC2=O)c(C)c1 (stereo not drawn) [Example I-2-b-6]
kill in % [16]: 100% | kill in % [17]: 100%

C=Cc1cc(C)cc(C)c1C1=C(OC(=O)C(C)(C)C)C2(CCC(OC)CC2)OC1=O (stereo not drawn) [Example I-2-b-8]
kill in % [16]: 100% | kill in % [1]: 100%

CCc1cc(C)c(C2=C(O)C(C)(C)NC2=O)c(CC)c1 [Example I-1-a-1]
kill in % [8]: 100%

CCc1cc(C)cc(C)c1C1=C(O)C(C)(C)NC1=O [Example I-1-a-8]
% damage Sorghum ([18]; 60 g ai/ha): 95% | % damage Sugar beet ([2]; 60 g ai/ha): 10% | % damage Cotton ([3]; 60 g ai/ha): 0% | % damage Echinochloa ([19]; 60 g ai/ha): 100% | % damage Digitaria ([4]; 60 g ai/ha): 95% | % damage Setaria ([6]; 60 g ai/ha): 100% | kill in % [8]: 100% | kill in % [20]: 100% | % damage Wheat [21]: 0% | % damage Sugar beet ([9]; 60 g ai/ha): 0% | % damage Soya bean ([10]; 60 g ai/ha): 0% | % damage Maize [22]: 10% | % damage Bromus [23]: 100% | % damage Alopecurus ([12]; 60 g ai/ha): 100% | % damage Lolium ([13]; 60 g ai/ha): 100% | % damage Setaria ([15]; 60 g ai/ha): 100% | % damage Avena fatua [24]: 90%

CCc1cc(C)cc(C)c1-c1c(O)c(C)c(-c2ccc(F)cc2)oc1=O [Example I-4-a-1]
kill in % [16]: 100% | kill in % [17]: 100% | % damage Sorghum ([18]; 125 g ai/ha): 90% | % damage Wheat [25]: 20% | % damage Sugar beet ([2]; 125 g ai/ha): 0% | % damage Cotton ([3]; 125 g ai/ha): 0% | % damage Echinochloa ([19]; 125 g ai/ha): 90% | % damage Digitaria ([4]; 125 g ai/ha): 100% | % damage Setaria ([6]; 125 g ai/ha): 95% | kill in % [8]: 100% | kill in % [20]: 100% | kill in % [1]: 100% | % damage Sugar beet ([9]; 125 g ai/ha): 0% | % damage Soya bean ([10]; 125 g ai/ha): 0% | % damage Digitaria [11]: 100% | % damage Alopecurus ([12]; 125 g ai/ha): 100% | % damage Lolium ([13]; 125 g ai/ha): 100% | % damage Veronica [14]: 95% | % damage Setaria ([15]; 125 g ai/ha): 100%
